Data reported in PMC7822874, “Chemoprotective antimalarials identified through quantitative high-throughput screening of Plasmodium blood and liver stage parasites” (Scientific Reports, 2021).
Like-named read-outs stand apart in the source and are kept apart here.

Tests used:
[1] = test system: HepG2-A16-CD81EGFP cells; settings: average of 2 wells; for HepG2 1uM growth rep1 / HepG2 1uM growth rep2: HepG2, 1 µM compound treatment (10 mM stocks); for HepG2 1uM growth rep1 / HepG2 3uM growth rep1: replicate 1, normalized; for HepG2 1uM growth rep2 / HepG2 3uM growth rep2: replicate 2, normalized; for HepG2 3uM growth rep1 / HepG2 3uM growth rep2: HepG2, 3 µM compound treatment (10 mM stocks)
[2] = test system: P. berghei-ANKA-GFP-LucCON liver stage parasites in HepG2-A16-CD81EGFP cells; assay: P. berghei liver stage Pb-Luc assay, Method 1 (UCSD, 1536-well); type: cell-based, Plasmodium berghei; settings: Plasmodium berghei, 48 h, P. berghei liver stage, average of 2 wells on a 1536 well plate; for activity at 1 µM: 1 µM compound treatment (10 mM stocks); for activity at 3 µM: 3 µM compound treatment (10 mM stocks)
[3] = test system: Plasmodium falciparum Dd2 asexual blood stage parasites; assay: microbe, parasite or virus in culture; design: species or system Plasmodium falciparum Dd2 in human erythrocytes; single determination (one 11-point concentration-response curve); settings: Plasmodium falciparum, DD2, Erythrocyte, 72 h; read-out: AC50
[4] = replicate 1, normalized, read-out: PbLuc 1uM growth rep1
[5] = replicate 2, normalized, read-out: PbLuc 1uM growth rep2
[6] = replicate 1, normalized, read-out: PbLuc 3uM growth rep1
[7] = replicate 2, normalized, read-out: PbLuc 3uM growth rep2

Compound	HepG2 1uM growth rep1 [1] [%]	HepG2 1uM growth rep2 [1] [%]	HepG2 3uM growth rep1 [1] [%]	HepG2 3uM growth rep2 [1] [%]	activity at 1 µM [2, 4] [%]	activity at 1 µM [2, 5] [%]	activity at 3 µM [2, 6] [%]	activity at 3 µM [2, 7] [%]	AC50 [3] [nM]
CCOC(=O)c1c(CN2CCN(c3ccccc3)CC2)oc2cc(Br)c(O)cc12 [MLS001198242-01]	109	100	87	95	136	107	96	86	1880
COc1ccc(-n2nc(C(=O)NCC(=O)N3CCN(c4ccccc4OC)CC3)c3ccccc3c2=O)c(OC)c1 [MLS000936211-01]	89	88	92	89	82	118	90	112	2110
Oc1c(Cl)cc(Cl)cc1CN1CCN(Cc2ccccc2)CC1 [MLS000106505-01]	105	94	90	94	108	103	88	103	668
CN(C)Cc1c(O)ccc2oc(Cc3ccccc3)cc12 [MLS000039159-01]	108	93	87	92	98	102	63	108	422
COc1ccc2[nH]c(C)c(CCN(Cc3cccs3)C(S)=Nc3ccccc3)c2c1 [MLS000529828-01]	91	90	85	88	145	108	101	128	2660
CCOC(=O)C1CCN(C(=O)c2cc(C(C)(C)C)nn2Cc2ccccc2)CC1 [MLS000860456-01]	105	95	88	93	119	98	89	96	4730
COc1ccc(C2c3[nH]c4ccccc4c3C[C@H]3C(=O)N(C4CCN(Cc5ccccc5)CC4)CC(=O)N23)cc1OC (stereo partly drawn) [MLS001215281-01]	107	95	91	90	95	94	66	79	2990
COc1cccc(-c2c(C#N)c(N)nc3c2c(C)nn3-c2ccccc2)c1O [MLS001214341-01]	104	95	90	91	118	95	106	118	1500
O=C(Nc1ccc(C2=NCCN2)cc1)c1ccc(C(=O)Nc2ccc(C3=NCCN3)cc2)c(Cl)c1 [MLS000737368-01]	102	94	85	95	107	94	72	81	473
CCC(=O)N1CCc2cc(Br)cc(S(=O)(=O)N3CCCCC3CC)c21 (stereo not drawn) [MLS000936752-01]	106	96	87	93	89	100	89	116	1060
Cc1cc(N2CCN(C3CCCC3)CC2)n2c(nc3ccccc32)c1C#N [MLS000039270-01]	91	87	89	90	103	109	75	112	1060
CC1CCN(c2ccc(C(=O)NCc3ccco3)cc2[N+](=O)[O-])CC1 [MLS000389854-01]	91	90	88	94	63	57	20	28	6680
COc1cc(C)cc(CN2CCC(Cc3ccccc3)CC2)c1O [MLS001178265-01]	101	92	87	88	83	95	81	123	750
Cc1ccc(-c2cc(C(F)(F)F)n3ncc(C(=O)N4CCCCC4c4cccnc4)c3n2)cc1 (stereo not drawn) [MLS000729132-01]	101	94	89	91	126	132	100	119	1880
COc1ccc(Nc2cc(C)nc(NCc3ccccc3)n2)cc1 [MLS000768693-01]	90	91	82	84	94	74	21	35	13300
N#Cc1c(N2CCN(c3ccc(F)cc3)CC2)nc(N)c2c(N)nc3c(c12)CC(=O)N3C1CC1 [MLS001003889-01]	108	97	85	94	114	88	44	56	668
O=C(Nc1ccc(S(=O)(=O)N2CCOCC2)cc1)c1cc(-c2cc(Cl)ccc2O)n[nH]1 [MLS000778989-01]	107	100	70	76	131	90	37	31	2660
COc1cc2ccccc2cc1C(=O)N1CCCC(C(F)(F)F)C1 (stereo not drawn) [MLS002180647-01]	105	90	83	89	90	108	85	115	5310
